# Measured values: patent publication US20010053796A1, “Delta-aminolevulinic acid for prevention and treatment of infection microorganisms and parasite” (priority 2000, published 2001)
# Marks after values point to notes of the source that are not given here.
# Key:
# [1] = system: Staphylococcus sp.; assay: Prevention effect for artificial infection (abdominal injection of bacteria); assay type: in vivo, Sebastes schlegeli; details: for Mortality during Cultivation: dead of 20 fish
# Protocol: (§1) The water temperature was maintained at 20° C. (±2° C. ) throughout the experiment. […]
# Bastardhalibut and Sebastes schlegeli were infected by Staphylococcus sp. by abdominal injection with the same method of fish breeding δ-aminolevulinic acid treatment and artificial infection carried out in Experiment 1 and 2. Each experimental fish was moved to fish tanks for monitoring and monitored for mortality according to infection for 2 weeks.
# [2] = system: Staphylococcus epidermis; assay: as above; assay type: in vivo, Sebastes schlegeli; details: for Mortality during Cultivation: dead of 20 fish
# Protocol: as §1
# Bastardhalibut and Sebastes schlegeli were infected by […] Staphylococcus epidermis through abdominal injection with the same method of fish breeding; δ-aminolevulinic acid treatment and artificial carried out in Experiment 1 and 2. Each experimental fish was moved to fish tanks for monitoring and monitored for mortality according to infection for 2 weeks. […] The treated group, with δ-aminolevulinic acid by tank administraion method and oral administration method, has shown high viability.
# [3] = system: White Spot Syndrome Virus (WSSV); assay: Treatment for WSSV infected shrimp; assay type: in vivo, Penaeus Chinesis
# Protocol: In this experiment, after injection of the viral homogenate aforementioned in EXPERIMENT 1, treatment group was immersed respectively in 0.01˜10 ppm of ALA for 1.5 hour for 3 days.
# [4] = system: Streptococcus sp.; assay: Treatment effect of infected fry by oral administration in feed; assay type: in vivo, Bastardhalibut; details: 50 fish
# Protocol: (§2) In this example, fry of Bastardhalibut and Sebastes schlegeli (mean body weight 2 g), 50 per each breeding tank, were preliminary-bred for 1 week and stabilized. […] The artificial infection methods were carried out through the digestion method. Pathogenic organisms were applied into fish tanks and introduced into seawater for an hour, wherein the concentration of organisms adjusted to 10^4 CFU/mL. Treatment conditions are as follows; after artificial infection, infected fish were moved to fish tanks and kept in the infection period for 3 days. […] The fish were bred for 2 weeks after exchanging with clean seawater and the mortality of fish according to infection was monitored. In the control groups, after each bacteria were identically infected through digestion method, mortality of Bastardhalibut and Sebastes schlegeli according to bacteria infection was identified while breeding with marketing assorted feed without δ-aminolevulinic acid. As a result of this experiment, δ-aminolevulinic acid-treated groups have shown high viability in both Bastardhalibut (Table 20˜Table 23) and Sebastes schlegeli (Table 24˜Table 27).
# [5] = system: Staphylococcus sp.; assay: as above; assay type: in vivo, Bastardhalibut; details: 50 fish
# Protocol: as §2
# [6] = system: Pseudomonas sp.; assay: as above; assay type: in vivo, Bastardhalibut; details: 50 fish
# Protocol: as §2
# [7] = system: Staphylococcus epidermis; assay: as above; assay type: in vivo, Bastardhalibut; details: 50 fish
# Protocol: as §2
# [8] = system: Edwardsiella tarda; assay: as above; assay type: in vivo, Bastardhalibut; details: 50 fish
# Protocol: as §2
# [9] = system: FHM (Fathead Minnow Epithelioma); details: 24 h
# Protocol: δ-aminolevulinic acid feed were prepared to 1.0 M concentration (0. 167 g/mL HBSS) and diluted by 10-fold dilution method. 100 μl of each fish cell line suspension of 2.5×10^5 were placed into 96-well microplate and then, 100 μl of each of the resulting diluted solution, 4 well/dilution unit, were added respectively. Fish cell lines, which were used for this cell toxicity experiment of δ-aminolevulinic acid, were RTG-2 (Rainbow Trout Gonad), FHM (Fathead Minnow Epithelioma) and CHSE (Chinook Salmon Embryo) lotted out from Dr. M. Yoshimizu of the Department of Fisheries, Hokkaido University, Japan. For these experimental cells, 100 U/mL penicillin (Sigma), 100 μl/mL streptomycin (Sigma) and MEM media supplemented with 5% fetal bovine serum (FBS, Gibco) for cell culture were used. Cultured cells in 96-well microplate was incubated for 3 hrs at 15° C. and δ-aminolevulinic acid were added to wells at amounts of 100 μl of 0, 1.0, 10, 50 and 100 mM and incubated for 24 hrs at 18° C. As a control group, instead of δ-aminolevulinic acid, HBSS was added at the same amount. […] Absorbance was measured with an ELISA reader at 570 μl.
# [10] = system: marine birnavirus (MABV); assay: Change of virus infection value (TCID50) in culture cells; assay type: cell-based; details: for Infection value by MABV: 8 mM
# Source text: In this experiment, change of infection value by virus according to δ-aminolevulinic acid treatment was examined by TCID50 using fish cell line for marine birnavirus (MABV) which infects major marine cultivating fish species, Bastardhalibut, Pagrus major and Sebastes schlegeli and acts as a cause for mass mortality. The virus used in this experiment was isolated from Bastardhalibut of a fish farm nearby Yeosu. Virus infection value was checked in CHSE-214 cell and then used as experimental virus solution. Virus incubation solution and δ-aminolevulinic acid diluted solution were combined with same amount (8 mL) and reacted for 30 min. and then, inoculated to culture cell and incubated at 20° C. Temporary change of virus infection value was compared with that of HBSS reaction virus solution (control).
# [11] = feed 0.1 ppm from 4th day of infection
# [12] = feed 1.0 ppm from 4th day of infection
# [13] = feed 50 ppm from 4th day of infection
# [14] = feed 100 ppm from 4th day of infection
smiles,measurement,setting,value
NCC(=O)CCC(=O)O [δ-aminolevulinic acid],Viability,"[1]; orally, 0.1 ppm in feed",50%
same,Mortality during Cultivation,"[1]; orally, 0.1 ppm in feed",10
same,Viability,"[1]; orally, 1.0 ppm in feed",55%
same,Mortality during Cultivation,"[1]; orally, 1.0 ppm in feed",9
same,Viability,"[1]; orally, 10 ppm in feed",90%
same,Mortality during Cultivation,"[1]; orally, 10 ppm in feed",2
same,Viability,"[1]; orally, 100 ppm in feed",90%
same,Mortality during Cultivation,"[1]; orally, 100 ppm in feed",2
same,Viability,"[1]; to fish tanks, 0.01 ppm",60%
same,Mortality during Cultivation,"[1]; to fish tanks, 0.01 ppm",8
same,Viability,"[1]; to fish tanks, 0.1 ppm",65%
same,Mortality during Cultivation,"[1]; to fish tanks, 0.1 ppm",7
same,Viability,"[1]; to fish tanks, 1.0 ppm",95%
same,Mortality during Cultivation,"[1]; to fish tanks, 1.0 ppm",1
same,Viability,"[1]; to fish tanks, 10 ppm",90%
same,Mortality during Cultivation,"[1]; to fish tanks, 10 ppm",2
same,Viability,"[2]; orally, 0.1 ppm in feed",50%
same,Mortality during Cultivation,"[2]; orally, 0.1 ppm in feed",10
same,Viability,"[2]; orally, 1.0 ppm in feed",50%
same,Mortality during Cultivation,"[2]; orally, 1.0 ppm in feed",10
same,Viability,"[2]; orally, 10 ppm in feed",75%
same,Mortality during Cultivation,"[2]; orally, 10 ppm in feed",5
same,Viability,"[2]; orally, 100 ppm in feed",80%
same,Mortality during Cultivation,"[2]; orally, 100 ppm in feed",4
same,Viability,"[2]; to fish tanks, 0.01 ppm",55%
same,Mortality during Cultivation,"[2]; to fish tanks, 0.01 ppm",9
same,Viability,"[2]; to fish tanks, 0.1 ppm",55%
same,Mortality during Cultivation,"[2]; to fish tanks, 0.1 ppm",9
same,Viability,"[2]; to fish tanks, 1.0 ppm",80%
same,Mortality during Cultivation,"[2]; to fish tanks, 1.0 ppm",4
same,Viability,"[2]; to fish tanks, 10 ppm",80%
same,Mortality during Cultivation,"[2]; to fish tanks, 10 ppm",4
same,Cumulative mortality,"[3]; 0.01 ppm, after injection for 3 weeks",100%
same,Mortality after injection for 3 weeks,"[3]; 0.01 ppm, day 1, 50 shrimp",0
same,Mortality after injection for 3 weeks,"[3]; 0.01 ppm, day 2, 50 shrimp",0
same,Mortality after injection for 3 weeks,"[3]; 0.01 ppm, day 3, 50 shrimp",15
same,Mortality after injection for 3 weeks,"[3]; 0.01 ppm, day 4, 50 shrimp",20
same,Mortality after injection for 3 weeks,"[3]; 0.01 ppm, day 5, 50 shrimp",12
same,Mortality after injection for 3 weeks,"[3]; 0.01 ppm, day 6, 50 shrimp",3
same,Cumulative mortality,"[3]; 0.1 ppm, after injection for 3 weeks",18%
same,Mortality after injection for 3 weeks,"[3]; 0.1 ppm, day 1, 50 shrimp",0
same,Mortality after injection for 3 weeks,"[3]; 0.1 ppm, day 2, 50 shrimp",0
same,Mortality after injection for 3 weeks,"[3]; 0.1 ppm, day 3, 50 shrimp",4
same,Mortality after injection for 3 weeks,"[3]; 0.1 ppm, day 4, 50 shrimp",3
same,Mortality after injection for 3 weeks,"[3]; 0.1 ppm, day 5, 50 shrimp",2
same,Mortality after injection for 3 weeks,"[3]; 0.1 ppm, day 6, 50 shrimp",0
same,Mortality after injection for 3 weeks,"[3]; 0.1 ppm, day 7, 50 shrimp",0
same,Mortality after injection for 3 weeks,"[3]; 0.1 ppm, day 21, 50 shrimp",0
same,Cumulative mortality,"[3]; 1.0 ppm, after injection for 3 weeks",10%
same,Mortality after injection for 3 weeks,"[3]; 1.0 ppm, day 1, 50 shrimp",0
same,Mortality after injection for 3 weeks,"[3]; 1.0 ppm, day 2, 50 shrimp",0
same,Mortality after injection for 3 weeks,"[3]; 1.0 ppm, day 3, 50 shrimp",3
same,Mortality after injection for 3 weeks,"[3]; 1.0 ppm, day 4, 50 shrimp",2
same,Mortality after injection for 3 weeks,"[3]; 1.0 ppm, day 5, 50 shrimp",0
same,Mortality after injection for 3 weeks,"[3]; 1.0 ppm, day 6, 50 shrimp",0
same,Mortality after injection for 3 weeks,"[3]; 1.0 ppm, day 7, 50 shrimp",0
same,Mortality after injection for 3 weeks,"[3]; 1.0 ppm, day 21, 50 shrimp",0
same,Cumulative mortality,"[3]; 10 ppm, after injection for 3 weeks",8%
same,Mortality after injection for 3 weeks,"[3]; 10 ppm, day 1, 50 shrimp",0
same,Mortality after injection for 3 weeks,"[3]; 10 ppm, day 2, 50 shrimp",0
same,Mortality after injection for 3 weeks,"[3]; 10 ppm, day 3, 50 shrimp",3
same,Mortality after injection for 3 weeks,"[3]; 10 ppm, day 4, 50 shrimp",1
same,Mortality after injection for 3 weeks,"[3]; 10 ppm, day 5, 50 shrimp",0
same,Mortality after injection for 3 weeks,"[3]; 10 ppm, day 6, 50 shrimp",0
same,Mortality after injection for 3 weeks,"[3]; 10 ppm, day 7, 50 shrimp",0
same,Mortality after injection for 3 weeks,"[3]; 10 ppm, day 21, 50 shrimp",0
same,Cumulative mortality,"[3]; immersion 1.0 ppm, 1.5 hour for 3 days after virus injection, 3 weeks",10%
same,Cumulative mortality,"[3]; immersion 10 ppm, 1.5 hour for 3 days after virus injection, 3 weeks",8%
same,Viability,[4]; [11],36%
same,Viability,[4]; [12],74%
same,Viability,[4]; [13],90%
same,Viability,[4]; [14],86%
same,Viability,[5]; [11],42%
same,Viability,[5]; [12],72%
same,Viability,[5]; [13],92%
same,Viability,[5]; [14],86%
same,Viability,[6]; [11],42%
same,Viability,[6]; [12],68%
same,Viability,[6]; [13],88%
same,Viability,[6]; [14],82%
same,Viability,[7]; [11],42%
same,Viability,[7]; [12],68%
same,Viability,[7]; [13],94%
same,Viability,[7]; [14],86%
same,Viability,[8]; [11],42%
same,Viability,[8]; [12],68%
same,Viability,[8]; [13],92%
same,Viability,[8]; [14],82%
same,safe range of toxicity,[9],below 10 mM
same,Infection value by MABV,[10]; 0 days after inoculation,4.3* Log TCID50/mL
same,Infection value by MABV,[10]; 1 day after inoculation,3.8 Log TCID50/mL
same,Infection value by MABV,[10]; 3 days after inoculation,3.5 Log TCID50/mL
same,Infection value by MABV,[10]; 5 days after inoculation,2.3 Log TCID50/mL
same,Infection value by MABV,[10]; 7 days after inoculation,<1.8 Log TCID50/mL
same,effect on MABV within culture cell system,[10]; reacted 30 min before inoculation,inactivated
